The text below walks through data of patent US20120184562A1, “1,6- AND 1,8-NAPHTHYRIDINES” (priority 2011, published 2012).

Structures can show the parent of a compound that is named as a salt. Where two headings read alike, the source gives them in different places.

The target in one assay is T1, Human DYRK1B (Homo sapiens, UniProt Q9Y463).
T1 construct: purchased Invitrogen PR8350B (former PV4649)
Kind of assay: DYRK1B Kinase TR-FRET (IMAP-Tb) Assay. It counts as biochemical. The text has this: DYRK1B Kinase TR-FRET (IMAP-Tb) Assay The kinase TR-FRET (IMAP-Tb) assay uses a fluorescence labeled substrate peptide in the kinase reaction. Upon phosphorylation by the kinase, phosphopeptide is produced, which will be detected by the binding solution provided in IMAP TR-FRET binding kit. After the completion of the kinase reaction, the reaction will be stopped by adding the binding solution containing terbium tracer. This tracer is immobilized on the surface of the IMAP beads, which also contain metal ions on the beads that bind to the phospho-groups of the products. Thus the phosphorylated product of the reaction can enter into close proximity to the tracer, producing resonance energy transfer. Due to the long lifetime of terbium (Tb) fluorescence the detection can be run in time resolved mode, which virtually eliminates fluorescence interference from assay components or compounds. The TR-FRET signal measurement from this assay, given as an IC50 measurement, is a measure of a test compound's ability to interfere with the phosphorylation of the peptide substrate, that is it inhibits the phosphorylation of the substrate peptide by DYRK1B, and is thus a measure of the test compound's ability to inhibit the activity of DYRK1B. […] Human DYRK1B: from Invitrogen. Part #PR8350B (former PV4649) • 2. Substrate Peptide: in-house synthesized: RRRFRPASPLRGPPK • 3. IMAP TR-FRET IPP Explorer Kit: from Molecular Devices. Part #R8157 • 4. Kinase Assay Buffer (KAB): 10 mM HEPES pH 7.0, 50 mM NaCl, 5 mM MgCl2, 1 mM DTT, 1 mM NaVO4, 200 μg/mL BSA (0.02%) • 5. Assay Plate: Remp polypropylene clear 384-well microplate. Cat#23490-102 • 6. Detection Plate: Costa black 384-well microplate. Cat #3710 Assay Procedure: This assay was performed as follows: • 1. Transfer 1.5 μL of 20× compound solution to each well of an assay plate. • 2. Add to each well 22.5 μL of KAB Buffer. • 3. Add to each well 3 μL of the solution of DYRK1B and ATP. […] Add to each well 3 μL of the substrate peptide. The assay concentration is 1.0 μM • 5. Incubate the assay plates at 37° C. for 60 minutes. • 6. Add 18 μL of Detection Solution (1:800 diluted Progress bead stock, 1:400 diluted Tb stock, 80% Buffer A, and 20% Buffer B) into each well of detection plates. • 7. Transfer 6 μL of assay solution from the assay plate to the detection plate. • 8. Shake detection plates for 30 minutes. • 9. Read plates in Envision with wavelength set at excitation 340 nm for Tb, emission 490 nm, and […] 520 nm. • 10. Calculation: TR-FRET Signal=(Reading at […]/Reading at 490 nM)×2000000
In general terms: In TR-FRET formats the signal depends on donor and acceptor labels being close together.

Assay [1] has as its system SW620 human colon cancer cells. Kind of assay: SW620 Cell Viability Assay. The assay is classed as cell-based. The following applies: SW-620, 96 h, 4 days incubation, CellTiter-Glo Luminescent Cell Viability Assay, read-out: Cellular EC50 (μM) SW620. The protocol: SW620 Cell Viability Assay
1. Cell Plate Preparation: SW620 human colon cancer cells (known to express DYRK1B), obtained from ATCC, were seeded into 96-well plates at 3×10^3 cells/well in 50 μL of media. • Harvested the required number of cells (counts & viability determined by Guava Viacount). • Centrifuge cells to pellet and removed supernant. • Resuspended in growth media (50 μL/well) & pipetted thoroughly to break up clumps. • Setup for ˜100 wells/plate, therefore, VT=5 mL/plate @ […]. 1A. Some cells (S—) were allowed to attach for 24 hrs, serum starved for 48 hrs, and then followed with drug treatments. Test compound solution were prepared in regular corresponding media supplemented with serum. 2. Test Compound Preparation: Test compounds were solubilized in either DMSO or media and prepared at various stock concentrations. • All compounds were incubated at 37° C. for 30 minutes and vortexed. • (5 mM stocks of test compound were prepared for non-soluble compounds)
• The 10 mM test compound stock was diluted to a concentration of 100× the final Cmax concentration. • Then the test compound stock is diluted 50-fold in media and/or second compound for a final Cmax concentration in the test compound plate. • The Cmax in the test compound plate (2% DMSO) is 2-fold higher than the final Cmax in the cell plate (60 uL titrations were 1:3). 4. Viability Assay: This assay was performed as follows: • Transfer 50 μL of test compound solution per well from the test compound plate onto the cell plate prepared in Step #1. • Mix the plate with treated cells by pipetting up and down three times with 200 μL multi-channel pipette. • Incubate the cells in 5% CO2 incubator @ 37° C. for 4 days. • Run the CellTiter-Glo™ Luminescent Cell Viability Assay.
The results of this assay, given as EC50 values, indicate the concentration of test compound that inhibits tumor cell proliferation by 50%.
A general note: ATP-based viability assays read luminescence as a measure of living cells.

A further assay deals with T2, Human DYRK1A (Homo sapiens, UniProt Q13627).
T2 construct: purchased Invitrogen PV3997
In words: DYRK1A Kinase TR-FRET (IMAP-Tb) Assay. The assay is classed as biochemical. The following applies: TR-FRET (IMAP-Tb); ATP 70 μM; 37° C., 60 minutes; average of multiple runs; read-out: Enzyme IC50 (μM) DYRK1A. From the text: DYRK1A Kinase TR-FRET (IMAP-Tb) Assay
The kinase TR-FRET (IMAP-Tb) assay uses a fluorescence labeled substrate peptide in the kinase reaction. Upon phosphorylation by the kinase, phosphopeptide is produced, which will be detected by the binding solution provided in IMAP TR-FRET binding kit. After the completion of the kinase reaction, the reaction will be stopped by adding the binding solution containing terbium tracer. This tracer is immobilized on the surface of the IMAP beads, which also contain metal ions on the beads that bind to the phospho-groups of the products. Thus the phosphorylated product of the reaction can enter into close proximity to the tracer, producing resonance energy transfer. Due to the long lifetime of terbium (Tb) fluorescence the detection can be run in time resolved mode, which virtually eliminates fluorescence interference from assay components or compounds.
The TR-FRET signal measurement from this assay, given as an IC50 measurement, is a measure of a test compound's ability to interfere with the phosphorylation of the peptide substrate, that is it inhibits the phosphorylation of the substrate peptide by DYRK1A, and is thus a measure of the test compound's ability to inhibit the activity of DYRK1A.
• 1. Human DYRK1A: from Invitrogen. Part #PV3997 • 2. Substrate Peptide: […] • 3. IMAP TR-FRET IPP Explorer Kit: from Molecular Devices. Part #R8157 • 4. Kinase Assay Buffer (KAB): 10 mM HEPES pH 7.0, 50 mM NaCl, 5 mM MgCl2, 1 mM DTT, 1 mM NaVO4, 200 μg/mL BSA (0.02%) • 5. Assay Plate: Remp polypropylene clear 384-well microplate. […] Detection Plate: Costa black 384-well microplate. […] Transfer 1.5 μL of 20× compound solution to each well of an assay plate. • 2. Add to each well 22.5 μL of KAB Buffer. • 3. Add to each well 3 μL of the solution of DYRK1A and ATP. […] Add to each well 3 μL of the substrate peptide. The assay concentration is 1.0 μM • 5. Incubate the assay plates at 37° C. for 60 minutes. • 6. Add 18 μL of Detection Solution (1:800 diluted Progress bead stock, 1:400 diluted Tb stock, 80% Buffer A, and 20% Buffer B) into each well of detection plates. • 7. Transfer 6 μL of assay solution from the assay plate to the detection plate. • 8. Shake detection plates for 30 minutes. • 9. Read plates in Envision with wavelength set at excitation 340 nm for Tb, emission 490 nm, and […].

[2] abbreviates: TR-FRET (IMAP-Tb), ATP 70 μM, 37° C., 60 minutes, average of multiple runs, read-out: Enzyme IC50 (μM) DYRK1B.

T1 sequence (Q9Y463 whole entry): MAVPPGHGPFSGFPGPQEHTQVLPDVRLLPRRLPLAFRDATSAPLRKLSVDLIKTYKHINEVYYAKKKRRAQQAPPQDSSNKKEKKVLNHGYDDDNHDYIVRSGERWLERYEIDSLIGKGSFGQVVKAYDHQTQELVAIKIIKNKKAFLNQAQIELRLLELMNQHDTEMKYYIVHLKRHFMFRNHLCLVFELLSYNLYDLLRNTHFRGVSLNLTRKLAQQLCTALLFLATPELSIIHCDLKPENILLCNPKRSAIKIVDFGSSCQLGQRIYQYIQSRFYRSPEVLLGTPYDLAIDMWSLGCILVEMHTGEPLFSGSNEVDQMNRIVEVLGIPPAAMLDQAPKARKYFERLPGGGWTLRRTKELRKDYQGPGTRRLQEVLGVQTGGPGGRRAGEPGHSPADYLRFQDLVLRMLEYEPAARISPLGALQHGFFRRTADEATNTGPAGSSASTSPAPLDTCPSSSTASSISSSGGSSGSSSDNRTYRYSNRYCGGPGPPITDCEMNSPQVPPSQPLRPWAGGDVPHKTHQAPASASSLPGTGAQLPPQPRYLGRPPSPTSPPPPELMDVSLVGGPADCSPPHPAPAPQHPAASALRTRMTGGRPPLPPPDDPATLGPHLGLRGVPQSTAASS

Turning to `COC(=O)c1ccc(Cl)c(NC(=O)c2cc3cnc(OC)cc3[nH]c2=O)c1` [Example 30, 4-Chloro-3-[(7-methoxy-2-oxo-1,2-dihydro-[1,6]naphthyridine-3-carbonyl)-amino]-benzoic acid methyl ester], the IC50 – broadly, the concentration that gives 50% inhibition – amounted to 0.119 µM at Human DYRK1B (setting [2]) and 0.135 µM at Human DYRK1A. In assay [1], the EC50 (as a rule, the midpoint of the concentration-response curve) was above 10 µM.
On the same counts, the results for `COc1cc2[nH]c(=O)c(C(=O)Nc3cc(C(=O)NCc4ccccc4)ccc3C)cc2cn1` [Example 33, 7-Methoxy-2-oxo-1,2-dihydro-[1,6]naphthyridine-3-carboxylic acid (5-benzylcarbamoyl-2-methyl-phenyl)-amide] are 0.484 µM, 2.15 µM and 1.47 µM.
On the same counts, the results for `COc1cc2[nH]c(=O)c(C(=O)Nc3cc(C(=O)NCc4cccs4)ccc3C)cc2cn1` [Example 37, 7-Methoxy-2-oxo-1,2-dihydro-[1,6]naphthyridine-3-carboxylic acid {2-methyl-5-[(thiophen-2-ylmethyl)-carbamoyl]-phenyl}-amide] are 0.917 µM, 0.588 µM and 0.47 µM.
On to `COc1cc2[nH]c(=O)c(C(=O)Nc3cc(C(=O)NCc4ccsc4)ccc3C)cc2cn1` [Example 38, 7-Methoxy-2-oxo-1,2-dihydro-[1,6]naphthyridine-3-carboxylic acid {2-methyl-5-[(thiophen-3-ylmethyl)-carbamoyl]-phenyl}-amide], for which the IC50 at Human DYRK1B (setting [2]) was 0.424 µM; at Human DYRK1A it was 0.266 µM. Moreover, the EC50 in assay [1] was above 10 µM.
As for `COc1cc2[nH]c(=O)c(C(=O)Nc3cc(C(=O)NCc4ccsc4)ccc3Cl)cc2cn1` [Example 43, 7-Methoxy-2-oxo-1,2-dihydro-[1,6]naphthyridine-3-carboxylic acid {2-chloro-5-[(thiophen-3-ylmethyl)-carbamoyl]-phenyl}-amide], the IC50 at Human DYRK1B (setting [2]) stood at 0.041 µM; on Human DYRK1A it was 0.028 µM. Besides, in assay [1], the EC50 was above 10 µM.
`COc1cc2[nH]c(=O)c(C(=O)Nc3cc(C(=O)NC(CN)c4ccccc4)ccc3Cl)cc2cn1` (stereo not shown) [Example 45, 7-Methoxy-2-oxo-1,2-dihydro-[1,6]naphthyridine-3-carboxylic acid [5-(2-amino-1-phenyl-ethylcarbamoyl)-2-chloro-phenyl]-amide; hydrochloride]: the IC50 at Human DYRK1B (setting [2]) was 0.014 µM; at Human DYRK1A it was 0.0115 µM. Further, the EC50 in assay [1] was determined as 0.177 µM.
Consider `COC(=O)c1ccc(C)c(NC(=O)c2cc3cnc(NCC(O)CO)cc3[nH]c2=O)c1` (stereo not shown) [Example 49, 3-{[7-(2,3-Dihydroxy-propylamino)-2-oxo-1,2-dihydro-[1,6]naphthyridine-3-carbonyl]-amino}-4-methyl-benzoic acid methyl ester; hydrochloride], for which the IC50 at Human DYRK1B (setting [2]) is 0.537 µM; at Human DYRK1A it was 0.3 µM. Also, in assay [1], the EC50 is above 10 µM.
As for `COc1cc2[nH]c(=O)c(C(=O)Nc3cc(C(=O)NC(CN)c4cccc(Cl)c4)ccc3Cl)cc2cn1` (stereo not shown) [Example 51, 7-Methoxy-2-oxo-1,2-dihydro-[1,6]naphthyridine-3-carboxylic acid {5-[2-amino-1-(3-chloro-phenyl)-ethylcarbamoyl]-2-chloro-phenyl}-amide; hydrochloride], the IC50 on Human DYRK1B (setting [2]) amounted to 0.119 µM; on Human DYRK1A it was 0.0198 µM. Moreover, the EC50 in assay [1] was 0.373 µM.
At Human DYRK1B, `COc1cc2[nH]c(=O)c(C(=O)Nc3cc(C(=O)NC(CCN)c4ccsc4)ccc3Cl)cc2cn1` (stereo not shown) [Example 53, 7-Methoxy-2-oxo-1,2-dihydro-[1,6]naphthyridine-3-carboxylic acid [5-(3-amino-1-thiophen-3-yl-propylcarbamoyl)-2-chloro-phenyl]-amide] yielded a concentration for half-maximal inhibition (IC50) of 0.0138 µM. Besides, the EC50 in assay [1] was 0.0524 µM.
In the case of `COc1cc2[nH]c(=O)c(C(=O)Nc3cc(C(=O)NC(CN)c4ccccc4)ccc3C)cc2cn1` (stereo not shown) [Example 55, 7-Methoxy-2-oxo-1,2-dihydro-[1,6]naphthyridine-3-carboxylic acid [5-(2-amino-1-phenyl-ethylcarbamoyl)-2-methyl-phenyl]-amide; hydrochloride], the IC50 amounted to 0.0915 µM at Human DYRK1B (setting [2]) and 0.0506 µM at Human DYRK1A. Also, the EC50 in assay [1] is 0.68 µM.
Regarding `COc1cc2[nH]c(=O)c(C(=O)Nc3cc(C(=O)NC(CN)c4ccsc4)ccc3Cl)cc2cn1` (stereo not shown) [Example 71, 7-Methoxy-2-oxo-1,2-dihydro-[1,6]naphthyridine-3-carboxylic acid [5-(2-amino-1-thiophen-3-yl-ethylcarbamoyl)-2-chloro-phenyl]-amide; hydrochloride], the IC50 against Human DYRK1B was below 0.0046 µM. Besides, in assay [1], the concentration for a half-maximal effect (EC50) was 0.137 µM.
